Measured values taken from patent US8637528B2, “Use of PDE7 inhibitors for the treatment of movement disorders” (Omeros Corporation, priority 2007, dated 2014).
Entries after “also recorded” stand apart in the source; their conditions may differ.

Key:
MPTP-treated mice = experiment: inked paw stride length in the MPTP mouse model of Parkinson's disease, panel of PDE7 inhibitors (Example 7); type: in vivo
Protocol: Adult male C57BL/6J; retired breeders, aged between 7-9 months Charles River Laboratories, Wilmington, Mass.), singly housed. Three groups of 35 mice were tested in series one week apart.
Mice received 2 subcutaneous injections of methylphenyltetrahydropyridine (“MPTP”) at a dose of 15 mg/kg (free base) with a 10-12 hour interval between injections. Control mice (sham lesion groups) were administered saline instead of MPTP.
Prior to injection with MPTP or saline, animals were pre-trained to walk across a clean sheet of paper into their home cage without stopping. For assessment of stride length, animals had their forepaws placed in black ink and the length of forepaw steps during normal walking (in a straight line only) was measured. The animals were immediately put back into their home cage upon completion of the task. Stride length was determined by measuring the distance between each step on the same side of the body, measuring from the middle toe of the first step to the heel of the second step. An average of at least four clear steps was calculated. The schedule for this experiment was as follows:
Because of the wide variation in aqueous solubility among these compounds, a number of different formulations were required. L-dopa was administered in 100 μl of phosphate buffered saline. For animals treated with L-dopa, the dopa decarboxylase inhibitor benserazide (100 μL of a 12.5 mg/kg solution) was administered 15 minutes prior to treatment with L-dopa in order to minimize the destruction of L-dopa in the peripheral blood. […] Therefore, the treatment effects observed are due solely to the PDE7 inhibitory compounds themselves. […] This phenomenon of “overshoot” has also been observed with L-dopa in MPTP-treated mice in which lower doses ameliorate hypoactivity while higher doses induce dyskinesias or uncontrolled movements (Lundblad M. et al., Exp Neurol.194(1):66-75 (2005); Pearce R. K. et al., Mov Disord. 10(6):731-40 (1995); Fredriksson, A. et al, Pharmacol-Toxicol. 67(4): 295-301 (1990)).
Retired breeder male mice were treated with either saline or 2×15 mg/kg MPTP to induce a Parkinsonian state (neurochemical loss of dopamine with corresponding behavioral deficits). On day one baseline stride length was measured and then mice were treated with either MPTP or with saline as a control. On day eight stride length was measured again, and the control value for stride length was derived from the stride length of saline-treated animals. The animals were then divided randomly into treatment groups. Compound OM955 (compound 3) was tested at 0.1 mg/kg, at 0.5 mg/kg, and at 0.1 mg/kg in combination with 1 mg/kg L-dopa.

PDE7A [1] = molecular target: T1, PDE7A (Homo sapiens (Human), UniProt Q13946); experiment: PDE7 phosphodiesterase scintillation proximity assay (SPA), PDE7A; type: biochemical; conditions: for Fold Selectivity, PDE7A: IC50 against PDE7A divided by IC50 against PDE7A; for selectivity for inhibition of the PDE7A enzyme as compared to the other PDEs: versus PDE1B, 2A, 3A, 4A, 5A, 8A, 9A, 10A, 11A
Target sequence in this assay (Q13946 whole entry, looked up): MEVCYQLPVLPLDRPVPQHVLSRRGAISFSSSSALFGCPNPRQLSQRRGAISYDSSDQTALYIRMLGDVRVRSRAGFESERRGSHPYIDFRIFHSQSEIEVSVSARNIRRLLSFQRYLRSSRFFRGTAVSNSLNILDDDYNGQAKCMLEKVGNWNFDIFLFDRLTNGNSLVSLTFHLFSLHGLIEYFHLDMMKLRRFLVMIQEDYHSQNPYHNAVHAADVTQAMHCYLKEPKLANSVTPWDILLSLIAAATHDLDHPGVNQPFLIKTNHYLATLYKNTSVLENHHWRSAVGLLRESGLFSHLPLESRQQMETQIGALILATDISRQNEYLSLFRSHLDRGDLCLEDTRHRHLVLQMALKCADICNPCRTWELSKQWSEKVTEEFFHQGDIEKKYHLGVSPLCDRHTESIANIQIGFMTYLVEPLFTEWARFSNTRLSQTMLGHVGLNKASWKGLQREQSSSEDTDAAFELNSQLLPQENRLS

PDE1B = PDE1B (Homo sapiens (Human), UniProt Q01064); experiment: PDE selectivity SPA assay, PDE1B; type: biochemical; conditions: IC50 against PDE1B divided by IC50 against PDE7A
Sequence of PDE1B (Q01064 whole entry): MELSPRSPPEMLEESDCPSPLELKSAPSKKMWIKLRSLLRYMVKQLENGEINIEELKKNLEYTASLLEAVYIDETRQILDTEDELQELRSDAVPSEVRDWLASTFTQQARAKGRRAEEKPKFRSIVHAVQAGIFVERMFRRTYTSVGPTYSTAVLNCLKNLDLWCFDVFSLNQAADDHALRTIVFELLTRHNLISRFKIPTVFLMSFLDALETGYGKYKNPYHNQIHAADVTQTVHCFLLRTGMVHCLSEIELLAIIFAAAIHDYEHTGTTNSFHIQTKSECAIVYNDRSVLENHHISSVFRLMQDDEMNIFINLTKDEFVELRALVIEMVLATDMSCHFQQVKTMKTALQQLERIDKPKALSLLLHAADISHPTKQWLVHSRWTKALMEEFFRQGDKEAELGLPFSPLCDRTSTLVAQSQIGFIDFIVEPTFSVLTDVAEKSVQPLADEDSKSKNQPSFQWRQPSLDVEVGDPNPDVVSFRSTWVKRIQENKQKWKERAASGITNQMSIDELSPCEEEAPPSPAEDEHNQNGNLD
Protocol: (§1) Phosphodiesterase activity was measured by a scintillation proximity assay (SPA, GE Healthcare: Product Code TRKQ7100) with [^3H]-cAMP as the substrate for PDEs 3A, 4A, 8A, or with [^3H]-cGMP as the substrate for PDEs 1B, 2A, 5A, 9A, 10A and 11A. Purified human PDE1B, PDE2A, PDE3A, PDE4A, PDE5A, PDE8A, PDE9A and PDE11A4 were obtained from BPS Bioscience, San Diego, Calif. Purified murine PDE10A was also obtained from BPS Biosciences. […] Therefore, the results obtained using murine PDE10A are believed to be representative of human PDE10.
(§2) The purified PDE enzymes were each diluted and stored in a solution containing 25 mM Tris-Cl (pH 8.0), 100 mM NaCl, 0.05% Tween 20, 50% glycerol, and 3 mM DTT. PDE assays were carried out in the following assay cocktail (final concentrations): 50 mM Tris-Cl (pH 8.0), 8.3 mM MgCl2, 1.7 mM EGTA, 0.5 mg/ml BSA, 2.5% DMSO and between 0.2 ng and 6 ng of the PDE protein (depending on the enzyme activity) in a final volume of 0.1 mL.
(§3) Reactions were initiated by addition of enzyme, incubated for 20 minutes at 30° C. and then terminated by the addition of 50 μl of SPA beads containing Zn^2+.
(§4) The mixture was shaken, and allowed to settle for 3 hours. Then the production of [^3H]-AMP or [^3H]-GMP from the substrate was quantitated by scintillation counting in a Wallac® plate counter. […]

PDE2A = PDE2A (Homo sapiens (Human), UniProt O00408); experiment: PDE selectivity SPA assay, PDE2A; type: biochemical; conditions: IC50 against PDE2A divided by IC50 against PDE7A
Sequence of PDE2A (O00408 whole entry): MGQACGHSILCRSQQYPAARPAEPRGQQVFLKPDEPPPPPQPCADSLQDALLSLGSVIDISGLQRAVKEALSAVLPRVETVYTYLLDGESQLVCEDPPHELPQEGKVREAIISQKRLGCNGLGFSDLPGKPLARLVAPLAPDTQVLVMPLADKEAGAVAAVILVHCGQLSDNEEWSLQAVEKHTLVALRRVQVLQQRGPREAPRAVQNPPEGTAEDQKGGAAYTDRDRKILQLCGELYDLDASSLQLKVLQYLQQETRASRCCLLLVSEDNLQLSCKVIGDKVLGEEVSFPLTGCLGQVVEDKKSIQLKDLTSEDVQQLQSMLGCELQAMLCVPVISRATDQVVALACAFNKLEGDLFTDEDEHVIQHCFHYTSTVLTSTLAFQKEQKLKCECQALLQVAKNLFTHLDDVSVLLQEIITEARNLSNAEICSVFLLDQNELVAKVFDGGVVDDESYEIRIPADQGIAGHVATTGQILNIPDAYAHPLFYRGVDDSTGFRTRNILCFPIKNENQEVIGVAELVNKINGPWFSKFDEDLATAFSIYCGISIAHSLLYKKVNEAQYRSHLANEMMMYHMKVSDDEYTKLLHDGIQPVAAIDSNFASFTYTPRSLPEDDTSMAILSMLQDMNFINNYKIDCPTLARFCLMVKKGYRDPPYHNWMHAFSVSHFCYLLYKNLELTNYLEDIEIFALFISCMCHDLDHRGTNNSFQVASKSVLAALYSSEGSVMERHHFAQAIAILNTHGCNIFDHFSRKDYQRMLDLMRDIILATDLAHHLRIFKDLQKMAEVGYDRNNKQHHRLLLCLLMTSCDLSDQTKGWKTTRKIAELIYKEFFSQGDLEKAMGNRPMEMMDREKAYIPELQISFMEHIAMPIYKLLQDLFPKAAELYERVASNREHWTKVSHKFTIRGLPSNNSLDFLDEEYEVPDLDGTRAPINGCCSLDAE
Protocol: as §1, §2, §3, §4

PDE4A = PDE4A (Homo sapiens (Human), UniProt P27815); experiment: PDE selectivity SPA assay, PDE4A; type: biochemical; conditions: IC50 against PDE4A divided by IC50 against PDE7A
Sequence of PDE4A (P27815 whole entry): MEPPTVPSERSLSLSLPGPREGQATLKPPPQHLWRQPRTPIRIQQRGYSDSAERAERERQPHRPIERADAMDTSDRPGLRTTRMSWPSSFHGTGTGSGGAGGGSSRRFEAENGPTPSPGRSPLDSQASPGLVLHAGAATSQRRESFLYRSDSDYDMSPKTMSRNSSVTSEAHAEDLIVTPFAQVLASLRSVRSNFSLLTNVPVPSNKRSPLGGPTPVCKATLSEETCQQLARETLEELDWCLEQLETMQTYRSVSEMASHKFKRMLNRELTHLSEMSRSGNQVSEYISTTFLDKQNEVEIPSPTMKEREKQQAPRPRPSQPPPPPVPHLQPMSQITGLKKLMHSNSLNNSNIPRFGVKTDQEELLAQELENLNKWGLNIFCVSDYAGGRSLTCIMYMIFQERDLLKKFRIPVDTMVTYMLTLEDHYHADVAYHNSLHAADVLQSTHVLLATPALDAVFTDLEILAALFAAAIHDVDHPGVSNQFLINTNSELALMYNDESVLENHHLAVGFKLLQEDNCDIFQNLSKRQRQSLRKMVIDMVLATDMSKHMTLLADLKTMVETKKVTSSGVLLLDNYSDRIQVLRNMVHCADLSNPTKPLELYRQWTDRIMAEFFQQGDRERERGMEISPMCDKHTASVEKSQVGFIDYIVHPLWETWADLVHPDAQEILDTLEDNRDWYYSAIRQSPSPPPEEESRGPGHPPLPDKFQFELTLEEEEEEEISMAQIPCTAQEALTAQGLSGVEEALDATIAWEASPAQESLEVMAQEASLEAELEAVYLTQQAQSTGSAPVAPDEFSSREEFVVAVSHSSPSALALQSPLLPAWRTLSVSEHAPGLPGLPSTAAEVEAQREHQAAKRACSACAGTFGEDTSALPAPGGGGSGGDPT
Protocol: as §1, §2, §3, §4

PDE5A = PDE5A (Homo sapiens (Human), UniProt O76074); experiment: PDE selectivity SPA assay, PDE5A; type: biochemical; conditions: IC50 against PDE5A divided by IC50 against PDE7A
Protocol: as §1, §2, §3, §4

PDE9A = PDE9A (Homo sapiens (Human), UniProt O76083); experiment: PDE selectivity SPA assay, PDE9A; type: biochemical; conditions: IC50 against PDE9A divided by IC50 against PDE7A
Sequence of PDE9A (O76083 whole entry): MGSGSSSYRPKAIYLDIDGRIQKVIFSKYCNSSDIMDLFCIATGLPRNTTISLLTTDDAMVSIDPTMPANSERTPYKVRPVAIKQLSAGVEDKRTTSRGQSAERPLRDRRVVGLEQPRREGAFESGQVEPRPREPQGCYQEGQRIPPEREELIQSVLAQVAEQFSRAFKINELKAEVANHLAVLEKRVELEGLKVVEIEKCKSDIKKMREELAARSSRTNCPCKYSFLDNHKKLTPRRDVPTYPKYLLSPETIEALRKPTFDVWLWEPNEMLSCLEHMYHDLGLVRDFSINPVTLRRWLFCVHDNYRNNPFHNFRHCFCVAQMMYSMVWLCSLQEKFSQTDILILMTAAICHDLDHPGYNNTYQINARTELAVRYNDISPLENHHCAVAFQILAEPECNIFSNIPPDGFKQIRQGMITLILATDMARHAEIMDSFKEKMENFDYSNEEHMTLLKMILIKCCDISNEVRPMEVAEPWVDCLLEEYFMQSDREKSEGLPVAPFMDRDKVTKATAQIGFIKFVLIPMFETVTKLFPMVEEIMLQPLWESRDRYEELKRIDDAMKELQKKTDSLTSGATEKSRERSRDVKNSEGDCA

PDE11A = PDE11A (Homo sapiens (Human), UniProt Q9HCR9); experiment: PDE selectivity SPA assay, PDE11A; type: biochemical; conditions: IC50 against PDE11A divided by IC50 against PDE7A
Sequence of PDE11A (Q9HCR9 whole entry): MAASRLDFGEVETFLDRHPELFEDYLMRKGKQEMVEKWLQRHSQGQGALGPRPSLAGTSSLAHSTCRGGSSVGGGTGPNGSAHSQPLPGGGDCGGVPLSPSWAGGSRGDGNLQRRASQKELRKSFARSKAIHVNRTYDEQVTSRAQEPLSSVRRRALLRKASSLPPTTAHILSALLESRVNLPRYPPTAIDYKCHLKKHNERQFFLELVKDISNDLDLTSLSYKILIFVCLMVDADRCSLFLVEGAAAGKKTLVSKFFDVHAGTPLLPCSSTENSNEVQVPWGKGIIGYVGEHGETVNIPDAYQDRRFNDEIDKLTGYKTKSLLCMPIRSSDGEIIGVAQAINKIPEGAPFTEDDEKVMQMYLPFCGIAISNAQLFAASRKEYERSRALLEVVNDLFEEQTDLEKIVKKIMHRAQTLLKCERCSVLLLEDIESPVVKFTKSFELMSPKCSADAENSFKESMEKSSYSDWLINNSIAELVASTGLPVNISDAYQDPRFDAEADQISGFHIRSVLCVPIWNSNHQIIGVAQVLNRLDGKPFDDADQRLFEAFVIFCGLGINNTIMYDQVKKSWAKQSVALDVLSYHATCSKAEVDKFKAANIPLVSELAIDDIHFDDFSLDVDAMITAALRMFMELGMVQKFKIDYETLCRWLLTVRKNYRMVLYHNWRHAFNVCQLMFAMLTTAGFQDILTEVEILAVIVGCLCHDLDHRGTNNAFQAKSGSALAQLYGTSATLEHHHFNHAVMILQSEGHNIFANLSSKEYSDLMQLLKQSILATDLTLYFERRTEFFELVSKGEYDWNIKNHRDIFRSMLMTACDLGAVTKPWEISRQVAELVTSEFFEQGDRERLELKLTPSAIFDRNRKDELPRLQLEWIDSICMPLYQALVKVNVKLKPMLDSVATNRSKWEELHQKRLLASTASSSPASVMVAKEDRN

PDE7A [2] = molecular target: T1, PDE7A; experiment: initial PDE7A inhibition assay, different assay methodology; type: biochemical; conditions: read-out: PDE7A IC50 in the initial assay work
Target sequence in this assay (Q13946 whole entry, species assumed): as the sequence (Q13946 whole entry, looked up) above

PDE7B = PDE7B (Homo sapiens (Human), UniProt Q9NP56); experiment: initial PDE7B inhibition assay, different assay methodology; type: biochemical; conditions: reliability questioned
[3] = molecular target: Catechol-O-Methyltransferase (COMT) (Sus scrofa, UniProt D3K5L3); experiment: biochemical; type: biochemical, pig; conditions: 10.0 μM
Dopamine D2L receptor = Dopamine D2L receptor (Homo sapiens (Human), UniProt P14416); experiment: Dopamine D2L radioligand binding assay; conditions: 10.0 μM
Sequence of Dopamine D2L receptor (P14416 whole entry): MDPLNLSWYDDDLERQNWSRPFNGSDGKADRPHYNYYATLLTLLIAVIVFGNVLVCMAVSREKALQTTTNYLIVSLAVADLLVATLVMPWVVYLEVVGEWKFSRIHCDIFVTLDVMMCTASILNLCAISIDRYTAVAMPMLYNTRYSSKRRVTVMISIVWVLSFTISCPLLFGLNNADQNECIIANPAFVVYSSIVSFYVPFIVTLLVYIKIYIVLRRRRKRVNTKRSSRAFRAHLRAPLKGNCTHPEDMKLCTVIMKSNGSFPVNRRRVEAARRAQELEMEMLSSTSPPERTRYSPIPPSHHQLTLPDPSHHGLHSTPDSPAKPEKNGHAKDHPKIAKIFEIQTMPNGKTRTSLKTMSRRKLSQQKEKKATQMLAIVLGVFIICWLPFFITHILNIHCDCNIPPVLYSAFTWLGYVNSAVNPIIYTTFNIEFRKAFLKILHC

Dopamine D4.2 receptor = Dopamine D4.2 receptor (Homo sapiens (Human), UniProt P21917, DEL265-296); experiment: Dopamine D4.2 radioligand binding assay; conditions: 10.0 μM
gabapentin receptor = gabapentin receptor (Rattus norvegicus, UniProt P54290); experiment: Gabapentin radioligand binding assay; conditions: 10.0 μM

Row | Structure (SMILES) | effect on stride length, in words (MPTP-treated mice; L-dopa 1 mg/kg alone, 20 minutes after administration) | IC50 (PDE7A [1]) | potency of PDE7A inhibition, in words (PDE7A [1]) | selectivity between PDE7A and PDE7B, in words (PDE7A [1]) | Fold Selectivity, PDE7A (PDE7A [1]) | selectivity for inhibition of the PDE7A enzyme as compared to the other PDEs (PDE7A [1]) | Fold Selectivity for PDE7A versus PDE1B (PDE1B) | Fold Selectivity for PDE7A versus PDE2A (PDE2A) | Fold Selectivity for PDE7A versus PDE4A (PDE4A) | Fold Selectivity for PDE7A versus PDE5A (PDE5A) | Fold Selectivity for PDE7A versus PDE9A (PDE9A) | Fold Selectivity for PDE7A versus PDE11A (PDE11A) | effect on stride length, in words (MPTP-treated mice; OM955 0.1 mg/kg alone, 20 minutes after administration) | effect on stride length, in words (MPTP-treated mice; OM955 0.5 mg/kg, 20 minutes (and one hour) after injection) | IC50 (PDE7A [2]) | IC50 (PDE7B) | percent inhibition of COMT enzymatic activity [3] | percent inhibition of ligand binding to Dopamine D2L (Dopamine D2L receptor) | percent inhibition of ligand binding to Dopamine D4.2 (Dopamine D4.2 receptor) | percent inhibition of ligand binding, Gabapentin (gabapentin receptor)
1 | N[C@@H](Cc1ccc(O)c(O)c1)C(=O)O [L-dopa, levodopa, reference compound] | do not increase stride length when administered alone; also recorded: does not increase stride length in MPTP mice to a significant level | – | – | – | – | – | – | – | – | – | – | – | – | – | – | – | – | – | – | –
2 | O=C1Nc2c(Cl)ccc(OCCO)c2C2(CCCCC2)N1 [OM955] | – | 0.0518 µM | moderate potency | little or no selectivity | 1 fold | greater than 100 fold | 342 fold | 209 fold | 113 fold | 355 fold | >192 fold | >192 fold | do not increase stride length when administered alone; also recorded: does not increase stride length in MPTP mice to a significant level | statistically significant improvement in the stride length; also recorded: fully restored to that of unlesioned animals; also recorded: full recovery of baseline stride length | – | – | – | – | – | –
3 | COc1cc(N)ccc1-c1cc2c(c(=O)[nH]1)C(C1CCCCC1)N=[N+]2C (stereo not shown) [OM69] | – | 0.0013 µM | high potency | little or no selectivity | 1 fold | greater than 1000 fold | 29,608 fold | 11,100 fold | 6500 fold | 4630 fold | >7700 fold | 7070 fold | – | – | 0.0035 µM | 0.0969 µM | 19.0% | 4.0% | −16.0% | 15.0%
